Experimental data published in PubChem BioAssay AID1918933 (Molecular Pharmacology Branch, DTP, NCI, 2023).
Where “and” joins values, the source holds several entries; their conditions need not be identical. Equal values may be shown once.

Test system: 186277-243-T-J2-PDC complex spheroid viability
Assay: Anticancer human tumor 186277-243-T-J2-PDC patient-derived colon adenocarcinoma cell line growth inhibition
Settings: for viability, T/C: stronger effect = lower value
Summary of the method: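 Drug combinations with the LSD1 inhibitor iadademstat tested on tumor cells co-cultured as spheroids with endothelial cells and mesenchymal stem cells. Concentrations descended in half-log increments from clinical Cmax or 10 microM.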

[1] = curve of first compound, second compound 0.1 µM
[2] = curve of first compound, second compound 0.316 µM
[3] = curve of first compound, second compound 1 µM
[4] = curve of first compound, second compound 3.16 µM
[5] = curve of first compound, second compound 10 µM
[6] = second compound 0.1 µM, first compound 0.00949 µM
[7] = second compound 0.1 µM, first compound 0.03 µM
[8] = second compound 0.1 µM, first compound 0.0949 µM
[9] = second compound 0.1 µM, first compound 0.3 µM
[10] = second compound 0.1 µM, first compound 0.949 µM
[11] = second compound 0.1 µM, first compound 3 µM
[12] = second compound 0.316 µM, first compound 0.00949 µM
[13] = second compound 0.316 µM, first compound 0.03 µM
[14] = second compound 0.316 µM, first compound 0.0949 µM
[15] = second compound 0.316 µM, first compound 0.3 µM
[16] = second compound 0.316 µM, first compound 0.949 µM
[17] = second compound 0.316 µM, first compound 3 µM
[18] = second compound 1 µM, first compound 0.00949 µM
[19] = second compound 1 µM, first compound 0.03 µM
[20] = second compound 1 µM, first compound 0.0949 µM
[21] = second compound 1 µM, first compound 0.3 µM
[22] = second compound 1 µM, first compound 0.949 µM
[23] = second compound 1 µM, first compound 3 µM
[24] = second compound 3.16 µM, first compound 0.00949 µM
[25] = second compound 3.16 µM, first compound 0.03 µM
[26] = second compound 3.16 µM, first compound 0.0949 µM
[27] = second compound 3.16 µM, first compound 0.3 µM
[28] = second compound 3.16 µM, first compound 0.949 µM
[29] = second compound 3.16 µM, first compound 3 µM
[30] = second compound 10 µM, first compound 0.00949 µM
[31] = second compound 10 µM, first compound 0.03 µM
[32] = second compound 10 µM, first compound 0.0949 µM
[33] = second compound 10 µM, first compound 0.3 µM
[34] = second compound 10 µM, first compound 0.949 µM
[35] = second compound 10 µM, first compound 3 µM
[36] = second compound 0.1 µM, first compound 0.0316 µM
[37] = second compound 0.1 µM, first compound 0.1 µM
[38] = second compound 0.316 µM, first compound 0.0316 µM
[39] = second compound 0.316 µM, first compound 0.1 µM
[40] = second compound 1 µM, first compound 0.0316 µM
[41] = second compound 1 µM, first compound 0.1 µM
[42] = second compound 3.16 µM, first compound 0.0316 µM
[43] = second compound 3.16 µM, first compound 0.1 µM
[44] = second compound 10 µM, first compound 0.0316 µM
[45] = second compound 10 µM, first compound 0.1 µM
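Further: 7 day exposure to compounds.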
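Wherever viability, T/C is given: 100% = DMSO vehicle control viability.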

SMILES: O=C(C=Cc1cccc(S(=O)(=O)Nc2ccccc2)c1)NO + NC1CCC(NC2CC2c2ccccc2)CC1
- IC50 [1]: 289 nM
- IC50 [2]: 290 nM
- IC50 [3]: 294 nM
- IC50 [4]: 305 nM
- IC50 [5]: 285 nM
- viability, T/C [6]: 109%
- viability, T/C [7]: 114%
- viability, T/C [8]: 121%
- viability, T/C [9]: 47.7%
- viability, T/C [10]: 20.5%
- viability, T/C [11]: 5.16%
- viability, T/C [12]: 116%
- viability, T/C [13]: 110%
- viability, T/C [14]: 109%
- viability, T/C [15]: 47%
- viability, T/C [16]: 15.7%
- viability, T/C [17]: 2.43%
- viability, T/C [18]: 113%
- viability, T/C [19]: 105%
- viability, T/C [20]: 104%
- viability, T/C [21]: 47.1%
- viability, T/C [22]: 16.6%
- viability, T/C [23]: 2.3%
- viability, T/C [24]: 99.7%
- viability, T/C [25]: 92%
- viability, T/C [26]: 113%
- viability, T/C [27]: 50.6%
- viability, T/C [28]: 16%
- viability, T/C [29]: 1.48%
- viability, T/C [30]: 104%
- viability, T/C [31]: 102%
- viability, T/C [32]: 113%
- viability, T/C [33]: 47.3%
- viability, T/C [34]: 15%
- viability, T/C [35]: 1.31%

SMILES: Cn1ncnc1C1c2n[nH]c(=O)c3cc(F)cc(c23)NC1c1ccc(F)cc1 (stereo unspecified) + NC1CC1c1ccc(-c2cccc(O)c2)cc1
- IC50 [1]: > 100 nM
- IC50 [2]: > 100 nM
- IC50 [3]: > 100 nM
- IC50 [4]: > 100 nM
- IC50 [5]: > 100 nM
- viability, T/C (second compound 0.1 µM, first compound 0.000316 µM): 110%
- viability, T/C (second compound 0.1 µM, first compound 0.001 µM): 109%
- viability, T/C (second compound 0.1 µM, first compound 0.00316 µM): 112%
- viability, T/C (second compound 0.1 µM, first compound 0.01 µM): 110%
- viability, T/C [36]: 106%
- viability, T/C [37]: 115%
- viability, T/C (second compound 0.316 µM, first compound 0.000316 µM): 113%
- viability, T/C (second compound 0.316 µM, first compound 0.001 µM): 110%
- viability, T/C (second compound 0.316 µM, first compound 0.00316 µM): 93.8%
- viability, T/C (second compound 0.316 µM, first compound 0.01 µM): 97.7%
- viability, T/C [38]: 100%
- viability, T/C [39]: 106%
- viability, T/C (second compound 1 µM, first compound 0.000316 µM): 113%
- viability, T/C (second compound 1 µM, first compound 0.001 µM): 114%
- viability, T/C (second compound 1 µM, first compound 0.00316 µM): 120%
- viability, T/C (second compound 1 µM, first compound 0.01 µM): 104%
- viability, T/C [40]: 108%
- viability, T/C [41]: 110%
- viability, T/C (second compound 3.16 µM, first compound 0.000316 µM): 110%
- viability, T/C (second compound 3.16 µM, first compound 0.001 µM): 115%
- viability, T/C (second compound 3.16 µM, first compound 0.00316 µM): 112%
- viability, T/C (second compound 3.16 µM, first compound 0.01 µM): 107%
- viability, T/C [42]: 113%
- viability, T/C [43]: 110%
- viability, T/C (second compound 10 µM, first compound 0.000316 µM): 110%
- viability, T/C (second compound 10 µM, first compound 0.001 µM): 106%
- viability, T/C (second compound 10 µM, first compound 0.00316 µM): 127%
- viability, T/C (second compound 10 µM, first compound 0.01 µM): 109%
- viability, T/C [44]: 104%
- viability, T/C [45]: 100%

SMILES: CC(C)CC(NC(=O)CNC(=O)c1cc(Cl)ccc1Cl)B1OC(=O)CC(CC(=O)O)(C(=O)O)O1 (stereo unspecified)
- viability, T/C (compound 0.000316 µM): 99.8% and 95.4%
- viability, T/C (compound 0.001 µM): 99.4% and 103%
- viability, T/C (compound 0.00316 µM): 101% and 94.2%
- viability, T/C (compound 0.01 µM): 70.7% and 51.2%
- viability, T/C (compound 0.0316 µM): 14.8% and 2.68%
- viability, T/C (compound 0.1 µM): 6.24% and 0.35%
- IC50 (curve of compound): 15.3 nM and 10.2 nM

SMILES: COc1cc(C2c3cc4c(cc3C(OC3OC5COC(C)OC5C(O)C3O)C3COC(=O)C23)OCO4)cc(OC)c1O (stereo unspecified) + NC1CCC(NC2CC2c2ccccc2)CC1
- IC50 [1]: 2710 nM
- IC50 [2]: 2750 nM
- IC50 [3]: > 3000 nM
- IC50 [4]: > 3000 nM
- IC50 [5]: > 3000 nM
- viability, T/C [6]: 93%
- viability, T/C [7]: 125%
- viability, T/C [8]: 144%
- viability, T/C [9]: 98.6%
- viability, T/C [10]: 74.2%
- viability, T/C [11]: 46.9%
- viability, T/C [12]: 120%
- viability, T/C [13]: 121%
- viability, T/C [14]: 150%
- viability, T/C [15]: 98.7%
- viability, T/C [16]: 72.9%
- viability, T/C [17]: 46.1%
- viability, T/C [18]: 109%
- viability, T/C [19]: 111%
- viability, T/C [20]: 150%
- viability, T/C [21]: 99.5%
- viability, T/C [22]: 71.4%
- viability, T/C [23]: 49.2%
- viability, T/C [24]: 111%
- viability, T/C [25]: 111%
- viability, T/C [26]: 155%
- viability, T/C [27]: 104%
- viability, T/C [28]: 77.6%
- viability, T/C [29]: 52.3%
- viability, T/C [30]: 113%
- viability, T/C [31]: 111%
- viability, T/C [32]: 150%
- viability, T/C [33]: 109%
- viability, T/C [34]: 81.5%
- viability, T/C [35]: 57.4%

SMILES: CC(C)c1c(-c2ccccc2)nc2c(C#N)c[nH]n2c1=O + NC1CC1c1ccc(-c2cccc(O)c2)cc1
- IC50 [1]: > 10000 nM
- IC50 [2]: > 10000 nM
- IC50 [3]: > 10000 nM
- IC50 [4]: > 10000 nM
- IC50 [5]: > 10000 nM
- viability, T/C [36]: 114%
- viability, T/C [37]: 101%
- viability, T/C (second compound 0.1 µM, first compound 0.316 µM): 106%
- viability, T/C (second compound 0.1 µM, first compound 1 µM): 85.4%
- viability, T/C (second compound 0.1 µM, first compound 3.16 µM): 88.1%
- viability, T/C (second compound 0.1 µM, first compound 10 µM): 72.5%
- viability, T/C [38]: 95.9%
- viability, T/C [39]: 107%
- viability, T/C (second compound 0.316 µM, first compound 0.316 µM): 104%
- viability, T/C (second compound 0.316 µM, first compound 1 µM): 100%
- viability, T/C (second compound 0.316 µM, first compound 3.16 µM): 85.9%
- viability, T/C (second compound 0.316 µM, first compound 10 µM): 78.5%
- viability, T/C [40]: 106%
- viability, T/C [41]: 99.8%
- viability, T/C (second compound 1 µM, first compound 0.316 µM): 93%
- viability, T/C (second compound 1 µM, first compound 1 µM): 96.2%
- viability, T/C (second compound 1 µM, first compound 3.16 µM): 95.4%
- viability, T/C (second compound 1 µM, first compound 10 µM): 73.7%
- viability, T/C [42]: 101%
- viability, T/C [43]: 106%
- viability, T/C (second compound 3.16 µM, first compound 0.316 µM): 111%
- viability, T/C (second compound 3.16 µM, first compound 1 µM): 108%
- viability, T/C (second compound 3.16 µM, first compound 3.16 µM): 96.9%
- viability, T/C (second compound 3.16 µM, first compound 10 µM): 80.9%
- viability, T/C [44]: 88.9%
- viability, T/C [45]: 86%
- viability, T/C (second compound 10 µM, first compound 0.316 µM): 102%
- viability, T/C (second compound 10 µM, first compound 1 µM): 97.6%
- viability, T/C (second compound 10 µM, first compound 3.16 µM): 85%
- viability, T/C (second compound 10 µM, first compound 10 µM): 74.6%

SMILES: O=C(C=Cn1cnc(-c2cc(C(F)(F)F)cc(C(F)(F)F)c2)n1)NNc1cnccn1
- viability, T/C (compound 0.00316 µM): 98.1% and 93.5%
- viability, T/C (compound 0.01 µM): 85.8% and 106%
- viability, T/C (compound 0.0316 µM): 23.5% and 84.3%
- viability, T/C (compound 0.1 µM): 9.4% and 15.8%
- viability, T/C (compound 0.316 µM): 5.65% and 4.97%
- viability, T/C (compound 1 µM): 0.55% and 2.09%
- IC50 (curve of compound): 19.4 nM and 56.4 nM

SMILES: CC1COCCN1c1cc(C2(S(C)(=N)=O)CC2)nc(-c2ccnc3[nH]ccc23)n1 (stereo unspecified)
- viability, T/C (compound 0.0316 µM): 103% and 87.2%
- viability, T/C (compound 0.1 µM): 93.4% and 94.7%
- viability, T/C (compound 0.316 µM): 44.4% and 91.3%
- viability, T/C (compound 1 µM): 14.2% and 48%
- viability, T/C (compound 3.16 µM): 8.73% and 10%
- viability, T/C (compound 10 µM): 9.16% and 5.79%
- IC50 (curve of compound): 278 nM and 952 nM
